Reference: US8846710B2, “Method of preferentially inducing the biosynthesis of interferon” (3M Innovative Properties Company, priority 2005, dated 2014)

Experiments:
[1] = tested on: tumor necrosis factor (α) (TNF-α); test: Cytokine induction in human cells: TNF-α secreted by PBMC into culture media (ORIGEN M-Series immunoassay); format: cell-based; set-up: key to Maximal Response (pg/mL) TNF / Maximal Response TNF: If any negative values result from background subtraction, the reading is reported as “*”, and is noted as not reliably detectable; conditions: for Minimum Effective Concentration TNF / Maximal Response TNF / minimal effective concentration: human PBMC; for Minimum Effective Concentration TNF: median where tested in more than one experiment; for Maximal Response TNF / Maximal Response (pg/mL) TNF: median; for minimal effective concentration: lowest tested concentration inducing TNF-α over usually 40 pg/mL, median where more than one experiment, read-out: Minimum Effective Concentration (μM) TNF; for Maximal Response (pg/mL) TNF: maximal response in dose response curve
Text: (§1) Cytokine Induction in Human Cells
(§2) An in vitro human blood cell system is used to assess cytokine induction. Activity is based on the measurement of interferon (α) and tumor necrosis factor (α) (IFN-α and TNF-α, respectively) secreted into culture media as described by Testerman et. al. in “Cytokine Induction by the Immunomodulators Imiquimod and S-27609”, Journal of Leukocyte Biology, 58, 365-372 (September, 1995).
(§3) Blood Cell Preparation for Culture
(§4) Whole blood from healthy human donors is collected by venipuncture into vacutainer tubes or syringes containing EDTA. Peripheral blood mononuclear cells (PBMC) are separated from whole blood by density gradient centrifugation using HISTOPAQUE-1077 (Sigma, St. Louis, Mo.) or Ficoll-Paque Plus (Amersham Biosciences Piscataway, N.J.). Blood is diluted 1:1 with Dulbecco's Phosphate Buffered Saline (DPBS) or Hank's Balanced Salts Solution (HBSS). Alternately, whole blood is placed in Accuspin (Sigma) or LeucoSep (Oreiner Bio-One, Inc., Longwood, Fla.) centrifuge frit tubes containing density gradient medium. The PBMC layer is collected and washed twice with DPBS or HBSS and re-suspended at 4×10^6 cells/mL in RPMI complete. The PBMC suspension is added to 96 well flat bottom sterile tissue culture plates containing an equal volume of RPMI complete media containing test compound.
(§5) The compounds are solubilized in dimethyl sulfoxide (DMSO). The DMSO concentration should not exceed a final concentration of 1% for addition to the culture wells. The compounds are generally tested at concentrations ranging from 30-0.014 μM. Controls include cell samples with media only, cell samples with DMSO only (no compound), and cell samples with reference compound.
(§6) The solution of test compound is added at 60 μM to the first well containing RPMI complete and serial 3 fold dilutions are made in the wells. The PBMC suspension is then added to the wells in an equal volume, bringing the test compound concentrations to the desired range (usually 30-0.014 μM). The final concentration of PBMC suspension is 2×10^6 cells/mL. The plates are covered with sterile plastic lids, mixed gently and then incubated for 18 to 24 hours at 37° C. in a 5% carbon dioxide atmosphere.
(§7) Following incubation the plates are centrifuged for 10 minutes at 1000 rpm (approximately 200×g) at 4° C. The cell-free culture supernatant is removed and transferred to sterile polypropylene tubes. Samples are maintained at −30 to −70° C. until analysis. The samples are analyzed for IFN-α by ELISA and for TNF-α by IGEN/BioVeris Assay.
(§8) Interferon (α) and Tumor Necrosis Factor (α) Analysis
The TNF-α concentration is determined by ORIGEN M-Series Immunoassay and read on an IGEN M-8 analyzer from BioVeris Corporation, formerly known as IGEN International, Gaithersburg, Md. The immunoassay uses a human TNF-α capture and detection antibody pair (Catalog Numbers AHC3419 and AHC3712) from Biosource International, Camarillo, Calif. Results are expressed in pg/mL.
(§9) In total, the data output of the assay consists of concentration values of TNF-α and IFN-α (y-axis) as a function of compound concentration (x-axis).
Analysis of the data has two steps. First, the greater of the mean DMSO (DMSO control wells) or the experimental background (usually 20 pg/mL for IFN-α and 40 pg/mL for TNF-α) is subtracted from each reading. If any negative values result from background subtraction, the reading is reported as “*”, and is noted as not reliably detectable. In subsequent calculations and statistics, “*”, is treated as a zero. Second, all background subtracted values are multiplied by a single adjustment ratio to decrease experiment to experiment variability. The adjustment ratio is the area of the reference compound in the new experiment divided by the expected area of the reference compound based on the past 61 experiments (unadjusted readings). […]

interferon (α) (IFN-α) = test: Cytokine induction in human cells: IFN-α secreted by PBMC into culture media (ELISA); format: cell-based; conditions: for Maximal Response IFN / Minimum Effective Concentration IFN / minimal effective concentration: human PBMC; for Maximal Response IFN / Minimum Effective Concentration IFN: median where tested in more than one experiment; for minimal effective concentration: lowest tested concentration inducing IFN-α over usually 20 pg/mL, median where more than one experiment, read-out: Minimum Effective Concentration (μM) IFN; for Maximal Response (pg/mL) IFN: maximal response in dose response curve, median
Text: as §1, §2, §3, §4, §5, §6, §7, §8
IFN-α concentration is determined with a human multi-subtype calorimetric sandwich ELISA (Catalog Number 41105) from PBL Biomedical Laboratories, Piscataway, N.J. Results are expressed in pg/mL.
as §9
Analysis of the data has two steps. First, the greater of the mean DMSO (DMSO control wells) or the experimental background (usually 20 pg/mL for IFN-α and 40 pg/mL for TNF-α) is subtracted from each reading. If any negative values result from background subtraction, the reading is reported as “*”, and is noted as not reliably detectable. In subsequent calculations and statistics, “*”, is treated as a zero. Second, all background subtracted values are multiplied by a single adjustment ratio to decrease experiment to experiment variability. The adjustment ratio is the area of the reference compound in the new experiment divided by the expected area of the reference compound based on the past 61 experiments (unadjusted readings). […] The reference compound used is 2-[4-amino-2-ethoxymethyl-6,7,8,9-tetrahydro-α,α-dimethyl-1H-imidazo[4,5-c]quinolin-1-yl]ethanol hydrate (U.S. Pat. No. 5,352,784; Example 91) and the expected area is the sum of the median dose values from the past 61 experiments. […]

[2] = Table 11, * = TNF below experimental background of 40 pg/mL
[3] = Table 12, * = below the experimental background of 40 pg/mL
[4] = Table 10, * = below experimental background level
[5] = Table 8, background-subtracted, reference-adjusted

Row | SMILES | Minimum Effective Concentration TNF ([1]; Table 11) | Maximal Response TNF [1, 2] | Maximal Response IFN (interferon (α) (IFN-α); Table 11) | Minimum Effective Concentration IFN (interferon (α) (IFN-α); Table 11) | further results
1 | Nc1nc2ccccc2c2c1nc(CCO)n2CCCNC(=O)c1ccccc1 [Example 132] | >30 µM | * | 8361 pg/mL | 0.37 µM | 
2 | CCCc1nc2c(N)nc3ccccc3c2n1CCCCCS(C)(=O)=O [Analog 75] | 1.11 µM | 848 pg/mL | 828 pg/mL | 0.12 µM | 
3 | CCOCc1nc2c(N)nc3cccnc3c2n1CC(C)C [Analog 132, 2-ethoxymethyl-1-(2-methylpropyl)-1H-imidazo[4,5-c][1,5]naphthyridin-4-amine] |  |  |  |  | Maximal Response TNF [1, 3]: 3160 pg/mL; Maximal Response IFN (interferon (α) (IFN-α); Table 12): 1524 pg/mL
4 | CCc1nc2c(N)nc3ccccc3c2n1CCCCNC(=O)N1CCOCC1 [Analog 54] | 3.33 µM | 2570 pg/mL | 4975 pg/mL | 0.37 µM | 
5 | CCCCCCCCCCCCCCCC(=O)NCCOCCn1c(CCO)nc2c(N)nc3ccccc3c21 [Example 140] | >30 µM | * | 673 pg/mL | 1.11 µM | 
6 | CC(C)(CNC(=O)c1ccccc1)Cn1c(CCO)nc2c(N)nc3ccccc3c21 [Example 124] | 3.33 µM | 1446 pg/mL | 3980 pg/mL | 0.12 µM | 
7 | COCc1nc2c(N)nc3cc(-c4cccnc4)ccc3c2n1CC(C)(C)O [Analog 11] |  |  |  |  | minimal effective concentration ([1]; Table 10): 1.11 µM; Maximal Response (pg/mL) TNF [1, 4]: 3445 pg/mL; minimal effective concentration (interferon (α) (IFN-α); Table 10): 0.37 µM; Maximal Response (pg/mL) IFN (interferon (α) (IFN-α); [4]): 829 pg/mL
8 | COCc1nc2c(N)nc3cc(-c4cncc(CO)c4)ccc3c2n1CC(C)(C)O [Analog 13] |  |  |  |  | minimal effective concentration ([1]; Table 10): 3.33 µM; Maximal Response (pg/mL) TNF [1, 4]: 8000 pg/mL; minimal effective concentration (interferon (α) (IFN-α); Table 10): 0.12 µM; Maximal Response (pg/mL) IFN (interferon (α) (IFN-α); [4]): 1771 pg/mL
9 | CCCc1nc2c(N)nc3ccccc3c2n1CCOCCN(C)S(C)(=O)=O [Analog 79] | 3.33 µM | 1312 pg/mL | 1055 pg/mL | 0.37 µM | 
10 | Nc1nc2ccccc2c2c1nc(CCO)n2CCCCNS(=O)(=O)c1ccc(F)cc1 [Example 112] | 30 µM | 76 pg/mL | 8361 pg/mL | 1.11 µM | 
11 | CS(=O)(=O)NCCCCn1c(CO)nc2c(N)nc3ccccc3c21 [Example 368, N-[4-(4-amino-2-hydroxymethyl-1H-imidazo[4,5-c]quinolin-1-yl)butyl]methanesulfonamide] |  | * | 7220 pg/mL |  | 
12 | CCc1nc2c(N)nc3ccccc3c2n1CCCCNS(C)(=O)=O [Analog 49] | 3.33 µM | 679 pg/mL | 2712 pg/mL | 0.04 µM | 
13 | COCCc1nc2c(N)nc3cccnc3c2n1CC(C)(C)O [Analog 7, 1-[4-amino-2-(2-methoxyethyl)-1H-imidazo[4,5-c][1,5]naphthyridin-1-yl]-2-methylpropan-2-ol] |  |  |  |  | Maximal Response (pg/mL) TNF [1, 5]: 7762 pg/mL; Maximal Response TNF [1, 3]: 7503 pg/mL; Maximal Response (pg/mL) IFN (interferon (α) (IFN-α); [5]): 4143 pg/mL; Maximal Response IFN (interferon (α) (IFN-α); Table 12): 3142 pg/mL
14 | CN(CCOCCn1c(CCO)nc2c(N)nc3ccccc3c21)C(=O)C1CCCCC1 [Example 135] | 30 µM | 146 pg/mL | 2464 pg/mL | 3.33 µM | 
15 | Cc1nc2c(N)nc3ccccc3c2n1CCCCNS(C)(=O)=O [Analog 48] | 10 µM | 526 pg/mL | 7293 pg/mL | 0.12 µM | 
16 | CS(=O)(=O)NCCCCn1c(CCO)nc2c(N)nc3cccnc3c21 [Example 145, N-{4-{4-Amino-2-(2-hydroxyethyl)-1H-imidazo[4,5-c][1,5]naphthyridin-1-yl]butyl}methanesulfonamide] |  |  |  |  | Maximal Response TNF [1, 3]: 7 pg/mL; Maximal Response IFN (interferon (α) (IFN-α); Table 12): 3008 pg/mL
17 | CCCC(=O)NCCCCn1c(COCC)nc2c(N)nc3cc(-c4cccnc4)ccc3c21 [Analog 31] |  |  |  |  | minimal effective concentration ([1]; Table 10): 1.11 µM; Maximal Response (pg/mL) TNF [1, 4]: 991 pg/mL; minimal effective concentration (interferon (α) (IFN-α); Table 10): 0.12 µM; Maximal Response (pg/mL) IFN (interferon (α) (IFN-α); [4]): 965 pg/mL
18 | CCCc1nc2c(N)nc3ccccc3c2n1CCCCNS(C)(=O)=O [Analog 50] | 1.11 µM | 850 pg/mL | 2184 pg/mL | 0.12 µM | 
19 | Nc1nc2ccccc2c2c1nc(CCO)n2CCCNC(=O)c1cc2ccccc2cn1 [Example 2, N-{3-[4-Amino-2-(2-hydroxyethyl)-1H-imidazo[4,5-c]quinolin-1-yl]propyl}isoquinoline-3-carboxamide] |  |  | 507 pg/mL |  | 
20 | CC(C)C(=O)N1CCC(Cn2c(CO)nc3c(N)nc4cc(-c5cccnc5)ccc4c32)CC1 [Example 191] |  |  |  |  | Maximal Response (pg/mL) IFN (interferon (α) (IFN-α); [4]): 969 pg/mL
21 | Nc1nc2cc(-c3cncc(CO)c3)ccc2c2c1nc(CO)n2CC1CCCCC1 [Example 205] |  |  |  |  | Maximal Response (pg/mL) IFN (interferon (α) (IFN-α); [4]): 1087 pg/mL
22 | CC(C)(N)Cn1c(CO)nc2c(N)nc3ccccc3c21 [Example 4, 1-(2-Amino-2-methylpropyl)-2-hydroxymethyl-1H-imidazo[4,5-c]quinolin-4-amine] |  |  | 1893 pg/mL |  | 
23 | CC(C)NC(=O)NCCn1c(CO)nc2c(N)nc3ccccc3c21 [Example 365, N-{2-[4-amino-2-(hydroxymethyl)-1H-imidazo[4,5-c]quinolin-1-yl]ethyl}-N′-isopropylurea] |  |  | 1488 pg/mL |  | 
24 | CC(C)(O)Cn1c(CO)nc2c(N)nc3cc(-c4cncc(CO)c4)ccc3c21 [Example 189] |  |  |  |  | Maximal Response (pg/mL) IFN (interferon (α) (IFN-α); [4]): 4357 pg/mL
25 | Nc1nc2cc(-c3cccc(C(=O)N4CCOCC4)c3)ccc2c2c1nc(CO)n2CC1CCCCC1 [Example 206] |  |  |  |  | Maximal Response (pg/mL) IFN (interferon (α) (IFN-α); [4]): 1266 pg/mL
